Structures are written as SMILES.

In the case of `CC(C)Cn1c(=O)n(C)c(=O)c2c(C#CCCCO)n(Cc3cccc4ccccc34)cc21`, the melting point – broadly, the temperature, or range, at which the solid turns liquid – lay within 176 to 177 °C.
In the case of `Nc1nc2ccccc2c2c1nc(-c1ccccc1)n2CCCCNC(=S)Nc1cccnc1` it was 118 to 120 °C; in that of `CCOC(=O)C=Cc1cc(N2C(=O)C3C4CC4CN3C2=O)c(F)cc1Cl` (stereo not given), 123 to 124 °C; in that of `C/C(=N\O)c1cccc(Nc2c3ccccc3nc3occc23)c1`, 248 to 249 °C.
As for `Cc1c(C(=O)O)oc2cc(-c3ccc(Cn4c(C)nc5ccccc54)cc3)ccc12`, the figure is 295 to 297 °C.
Molecule `O=S1Cc2ccccc2-c2ccccc21` (stereo not given) had a melting point of 97 to 100 °C.
In the case of `O=C(Cc1ccccc1Nc1c(Cl)cccc1Cl)OCc1ccncc1` it was 121 to 123 °C.
As for `CC(=O)NC1(c2ccc(CCl)cc2)CC1`, the figure is 124 to 127 °C; as for `CN1c2ccccc2N(C(=O)c2ccccc2)C(=O)c2cccnc21`, 181 to 183 °C.
In turn, `COc1ccc(C2=NNC(=O)[C@H]3CCCC[C@@H]23)cc1OC` (relative stereo) came in with a melting point of 143 to 146 °C.
As for `O=C(c1ccccc1)c1ccc(OC(=O)C2CC2)cc1`, the figure is 81 to 81.5 °C; as for `Cc1cc(Cl)ccc1NC(=O)NCCCl`, 190 °C; as for `COc1ccc2c(Cc3c(Cl)cncc3Cl)nncc2c1`, 173 to 175 °C.
In the case of `N#Cc1cc(NC(=O)c2ccn(-c3ccc(F)cc3)c2)ccc1N1CCC(N2CCOCC2)CC1` it was 182 to 183 °C; in that of `Cc1ccc(Cc2cnc(CCCSCc3cc(CN(C)C)ccn3)[nH]c2=O)cn1`, 110 to 112 °C; in that of `O=C1c2cc3nnn(C4CCC4)c(=O)c3cc2OC2CCCN12` (stereo not given), 216 to 218 °C.
`O=C(O)COc1cc(-c2c3ccccc3c(Br)c3sc4ccccc4c23)ccc1Br`: the melting point was 174 to 175 °C.
Take `COC(=O)c1c(C)c(OC)cc(O[Si](C)(C)C(C)(C)C(C)C)c1C=O`: the melting point lay within 69 to 70 °C.
In the case of `O=C1NC=NC2CN=C(c3ccccc3)c3cc(Cl)ccc3C12` (stereo not given) it was 150 to 155 °C.
As for `Cc1ccc(NC(=O)NCc2ccc3c(c2)CN(C2CCC(=O)NC2=O)C3=O)cc1C(F)(F)F` (stereo not given), the figure is 273 to 275 °C.
On to `CCN1CCC(n2nc(-c3c(-c4ccccc4)nn4ccccc34)ccc2=O)CC1`, for which the melting point is 134 to 135 °C.
`Fc1ccc(N2CCN(CCCN(c3ccccc3)c3ccccc3)CC2)cc1` yielded a melting point of 87 to 88 °C.
`O=C1CNC(c2cc(-c3ccsc3)cc(-c3ccsc3)c2)=NN1CC(F)(F)F` gave a melting point of 180 to 182 °C.
As for `Cc1cc(C(F)(C(F)(F)F)C(F)(F)F)ccc1N1C(=O)c2cccc(Cl)c2C1NC(C)(C)CS(C)(=O)=O` (stereo not given), the figure is 154 to 156 °C; as for `COCCOCCOCCOc1cc(OC)c(-c2cccs2)cc1/C=C/C(=O)c1ccc(C(=O)O)cc1`, 137 to 138 °C; as for `Cc1ccc(-c2ccccc2C(=O)Nc2ccc(C(=O)N(CCO)c3ccccc3C)cc2)cc1`, 115 to 118 °C.
In the case of `CCS(=O)(=O)CCOc1cc(CCCOc2nn(Cc3ccccc3)cc2CC(=O)O)n(Cc2ccc(Cl)cc2Cl)n1` it was 100 to 101 °C; in that of `COc1ncnc(OC)c1CON=C(C)c1cc(C)cc(C)n1`, 125 to 126 °C.
As for `CC(C)(C)c1nnc(NN=Cc2ccccc2)s1`, the melting point lay within 195 to 196 °C.
The molecule `COc1ccc(-c2oc3ccc(CC(=O)N4CCN(c5ccccc5)CC4)cc3c2SC)cc1OC` registered a melting point of 160 °C.
In the case of `Cc1nc(-c2ccc(OCCCn3ccnc3)cc2)no1` it was 110 to 112 °C.
In the case of `CN(C)c1cccc(OCC(=O)NCCO[N+](=O)[O-])c1` it was 62 to 63 °C; in that of `Cc1csc2nc(S(=O)(=O)Nc3ccccc3Cl)nn12`, 172 to 174 °C.
In turn, `CC(=O)Nc1ccc(OCCN(CC(=O)c2ccc(OCc3ccccc3)c(OCc3ccccc3)c2)Cc2ccccc2)cc1` had a melting point of 104 to 106 °C.
For `C=CCC(NC(C)=O)C(=O)NCc1ccccc1` (stereo not given), the melting point was 118 to 120 °C.
On to `CC(=O)N(C)N(C(=O)OC(C)(C)C)c1ccc(CC#N)cc1`, for which the melting point was 74 to 75 °C.
Regarding `CC(C)(C)OC(=O)NCC(=O)NCC(=O)Oc1ccc(-c2nn(C3CCCC3)c3c(F)cccc23)cc1`, the melting point lay in the range of 103 to 104 °C.
In the case of `CN(C)C=C(C#N)C(=O)c1ccc(-n2ccnc2)cc1` it was 165 °C.
In the case of `CC1(C)Cc2cccc(Oc3c(Cl)cc(NC(=S)NC(=O)c4c(F)cccc4F)cc3Cl)c2O1` it was 153 to 154 °C; in that of `CCN(CC)C(=O)CCc1nc(-c2ccccc2)nc2c(C)cccc12`, 80 °C; in that of `COc1ccc(C(=O)NCCCCCCCCCCNC(=O)c2ccc(OC)cc2)cc1`, 168 to 170 °C.
Molecule `CCN(CC)CCNC(=O)c1cccc2c(=O)c3c(I)cccc3[nH]c12` gave a melting point of 144 to 146 °C.
In the case of `COc1cccc2c(COCCC(c3ccccc3)c3ccccc3)coc12` it was 147 to 149 °C; in that of `CCNC(=O)c1ccc(N2CCN(Cc3cnc4c(c3)[nH]c(=O)n3cccc43)CC2)c(Cl)c1`, 266 to 271 °C.
In the case of `CCC(C)(C)c1cc(-c2cccc(C=C3SC(N4CCCC4)=NC3=O)c2)ccc1O` it was 282 to 283 °C; in that of `c1ccc2c(N3CCNCC3)nccc2c1`, 54 to 56 °C; in that of `O=C(O)CCc1cn(Cc2cccc(C(=O)Nc3cccnc3)c2)nc1-c1ccccc1`, 131 to 132 °C.
As for `C[C@@H](NC(=O)c1noc(-c2ccc(Cl)cc2)n1)[C@](O)(Cn1cncn1)c1ccc(F)cc1F`, the figure is 79 to 83 °C; as for `O=C1NC(=S)S/C1=C\c1ccccc1Nc1cccc(C(F)(F)F)c1`, 234 to 236 °C; as for `COc1cc(C2=C(c3cn(C)c4ccccc34)C(=O)NC2=O)cc(OC)c1OC`, 187 °C.
With `Cc1c(C(=O)NCC(N)=O)cccc1-c1cccc2cc(Cc3cccc(C(F)(F)F)c3)sc12`, the melting point was 124 to 125 °C.
In the case of `O=C(O)/C=C/c1ccc(N2CCC3(CC2)OCCO3)cc1` it was 221 to 222 °C; in that of `CC(C)(C)OC(=O)[C@H]1CC[C@@H](c2ccccc2)N1C(=O)CNC(=O)Nc1cccc(C(=O)OCc2ccccc2)c1` (racemic), 75 °C.
As to `CCCCCCCCCCCCCCCCCC(=O)NCCCSc1ccncc1`, the melting point lay within 88 to 89 °C.
In the case of `Cc1ccc(-c2ccc(C(=O)O)cc2)c(N)c1` it was 273 to 278 °C; in that of `CCc1cccc(C)c1CNc1cc(C(=O)N(C)C)cc2c1nc(COC)n2C`, 154 °C.
As for `CCOC(=O)c1oc2ccc(Cl)cc2c1CBr`, the figure is 112 to 114 °C; as for `C[C@@H]1N(C(=O)OC(C)(C)C)CC[C@]1(C)O`, 109 to 112 °C.
As for `COc1ccc2[nH]c3c(c2c1)CCS(=O)(=O)CCC3`, the figure is 231 to 233 °C; as for `COC(=O)C(=C1SCCCN1C(=O)OC)[N+](=O)[O-]`, 71 to 72 °C; as for `COCc1cccc(C(=O)c2nc(OC)cc(OC)n2)c1N`, 100 to 101 °C.
`Cc1c(-c2ccccc2)[nH]c(=O)n1C1CCN(Cc2cccc(C(F)(F)F)c2)CC1` displayed a melting point of 243 °C.
Molecule `CCCc1nc(C=O)c(C(=O)OCC)n1Cc1cc2c(cc1Cl)OCO2` came in with a melting point of 105 °C.
As for `COC(=O)NC(Cc1c[nH]c2ccccc12)C(=O)OCc1cc(C)cc(C)c1` (stereo not given), the melting point was 128 to 129 °C.
Turning to `O=S(=O)(/C=C/c1ccccc1)Nc1ccc(F)cc1`, the melting point fell in the range of 83 to 85 °C.
The molecule `Nc1cc(-c2ccccc2)n(-c2ccc(S(N)(=O)=O)cc2)n1` displayed a melting point of 286 to 290 °C.
As for `O=S(=O)(Nc1cccc(COc2cccc3cccnc23)c1)c1ccc(F)cc1`, the figure is 206 to 207 °C; as for `COc1ccc(S(=O)(=O)N2C(=O)C(c3cc(C)ccc3OC)(N3C[C@H](O)C[C@H]3C(=O)N(C)C)c3cc(Cl)ccc32)c(OC(F)(F)F)c1` (stereo not given in full), 192 to 193 °C.
In the case of `COC(=O)CCCCC(=O)Nc1ccc(C(=O)NN=C2C(=O)Nc3ccc(I)cc32)cc1` it was 277 °C.
In the case of `Cc1c(C)c(N2Cc3cc(Cl)c(Cl)cc3C2)c(C)c2c1OC(C)(C)C2c1ccccc1` (stereo not given) it was 194 to 196 °C; in that of `CCCCN(CC1Cc2cc(Cl)cc(Cl)c2O1)C(=O)n1cncn1` (stereo not given), 122 to 124 °C.
Consider `COC(Cc1ccc(OCCN(C)c2nc3ccccc3o2)cc1)C(=O)O` (stereo not given), for which the melting point was in the range of 121 to 123 °C.
In the case of `CCNc1nc(Nc2ccccc2)ncc1CO` it was 174 to 176 °C; in that of `CC(CN(C)C)Nc1ccnc2cc(Cl)ccc12` (racemic), 168 to 170 °C; in that of `Nc1c(SC(F)(F)F)nc(Br)n1-c1c(Cl)cc(C(F)(F)F)cc1Cl`, 154 °C.
On to `CNC(=O)ON=C(C)SC(C)C(N)=O` (stereo not given), for which the melting point is 161 to 163 °C.
Take `O=c1nc(N2CCCC(O)C2)sc2ncccc12` (stereo not given): the melting point lay within 208 to 211 °C.
As for `Clc1ccc(N2CCN(CCCc3c4c(nn3-c3ccc(Cl)cc3)CCCC4)CC2)cc1`, the figure is 129 to 131 °C.
The molecule `Cc1cc(C(=O)N2CCOCC2)ncc1C(c1cc(F)ccc1F)S(=O)(=O)c1ccc(F)cc1` (stereo not given) yielded a melting point of 165 to 167 °C.
`O=C(O)CCCC12CCC(=O)N1C(=O)CC2` gave a melting point of 178 to 180 °C.
On to `COc1ccc(OC)c(-c2cccc3c2OC(CN)C3)c1` (stereo not given), for which the melting point was in the range of 128 to 132 °C.
As for `N#Cc1ncccc1C(=O)OCc1csc(-c2cccc(Cl)c2)n1`, the melting point amounted to 130 °C.
As for `CCCOc1ccc(S(=O)(=O)N2CC[C@@H](N(C)C)C2)cc1-c1nc2cc3ncn(Cc4ccc(F)cc4)c3cc2c(=O)[nH]1`, the melting point lay within 223 to 225 °C.
In the case of `COc1ccc(-c2cc(=O)n(Cc3ccc(F)cc3F)nc2-c2ccc(OC)cc2)cc1` it was 150 to 151 °C; in that of `Cc1cc(NC(=O)OC(C)(C)C)c(C)c2c1OC(C)(C)C2=O`, 144 to 145 °C.

Source of the values: a melting point compilation (Tetko et al.; mined from patent text by program, amines drawn as free bases though some values may be those of a salt).
